From patent publication US20140073651A1, “BENZAMIDE DERIVATIVES AS P2X7 RECEPTOR ANTAGONISTS” (Actelion Pharmaceuticals Ltd., priority 2011, published 2014)

What follows are compounds tested against T1, human recombinant P2X7 receptor (Homo sapiens, UniProt Q99572) (assay: YO-PRO assay (YO-PRO-1 uptake) in HEK cells stably expressing P2X7). Details: HEK-293 cells expressing human recombinant P2X7 receptor; ATP 250 μM, 90 minutes; YO-PRO-1 fluorescence (FLIPR tetra); read-out: IC50 (antagonistic activity with respect to the P2X7 receptor).
T1 construct: expressed in transfected cells
T1 sequence (Q99572 1-595): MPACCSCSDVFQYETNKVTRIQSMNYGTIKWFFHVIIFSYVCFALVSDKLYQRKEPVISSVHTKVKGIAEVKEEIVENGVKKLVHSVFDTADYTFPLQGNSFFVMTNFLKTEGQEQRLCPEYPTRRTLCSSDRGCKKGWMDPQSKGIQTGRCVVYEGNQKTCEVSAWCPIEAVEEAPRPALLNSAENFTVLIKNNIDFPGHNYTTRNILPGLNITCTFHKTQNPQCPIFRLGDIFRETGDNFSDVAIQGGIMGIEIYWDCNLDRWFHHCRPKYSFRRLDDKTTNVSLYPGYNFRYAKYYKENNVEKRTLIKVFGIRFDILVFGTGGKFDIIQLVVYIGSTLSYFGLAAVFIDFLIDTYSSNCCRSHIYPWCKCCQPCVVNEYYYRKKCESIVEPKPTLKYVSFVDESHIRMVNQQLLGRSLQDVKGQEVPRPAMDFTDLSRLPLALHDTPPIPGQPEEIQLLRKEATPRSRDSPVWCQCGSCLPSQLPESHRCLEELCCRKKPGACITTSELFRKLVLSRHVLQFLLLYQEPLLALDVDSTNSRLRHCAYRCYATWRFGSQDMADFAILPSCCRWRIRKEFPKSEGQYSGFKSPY
Type: cell-based
How it was run: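 Antagonist serially diluted (duplicates) on P2X7-expressing HEK cells in buffer with 0.5 μM YO-PRO-1; dye uptake followed on FLIPR Tetra over four time points. IC50 from maximum fluorescence intensity versus compound concentration.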

IC50 | Compound
96 nM | Cn1c(Oc2ccc(Cl)c(C(=O)NCC3(O)CCCCC3)c2)cccc1=O [Example 113, 2-Chloro-N-(1-hydroxy-cyclohexylmethyl)-5-(1-methyl-6-oxo-1,6-dihydro-pyridin-2-yloxy)-benzamide]
100 nM | O=C(NCC1(O)CCCCC1)c1cc(Oc2ccncn2)ccc1Cl [Example 114, 2-Chloro-N-(1-hydroxy-cyclohexylmethyl)-5-(pyrimidin-4-yloxy)-benzamide]
191 nM | O=C(NCC1(O)CCCCC1)c1cc(Oc2ccnc(Cl)n2)ccc1Cl [Example 115, 2-Chloro-5-(2-chloro-pyrimidin-4-yloxy)-N-(1-hydroxy-cyclohexylmethyl)-benzamide]
172 nM | CNc1nccc(Oc2ccc(Cl)c(C(=O)NCC3(O)CCCCC3)c2)n1 [Example 116, 2-Chloro-N-(1-hydroxy-cyclohexylmethyl)-5-(2-methylamino-pyrimidin-4-yloxy)-benzamide]
427 nM | CN(C)c1nccc(Oc2ccc(Cl)c(C(=O)NCC3(O)CCCCC3)c2)n1 [Example 117, 2-Chloro-5-(2-dimethylamino-pyrimidin-4-yloxy)-N-(1-hydroxy-cyclohexylmethyl)-benzamide]
14 nM | O=C(NCC1(O)CCC(F)(F)CC1)c1cc(Oc2cc[nH]c(=O)n2)ccc1Cl [Example 118, 2-Chloro-N-(4,4-difluoro-1-hydroxy-cyclohexylmethyl)-5-(2-oxo-1,2-dihydro-pyrimidin-4-yloxy)-benzamide]
796 nM | O=C(NCC1(O)CCCCC1)c1cc(Oc2ccnc(=O)[nH]2)ccc1Cl [Example 119, 2-Chloro-N-(1-hydroxy-cyclohexylmethyl)-5-(2-oxo-2,3-dihydro-pyrimidin-4-yloxy)-benzamide]
111 nM | COc1nccc(Oc2ccc(Cl)c(C(=O)NCC3(O)CCCCC3)c2)n1 [Example 120, 2-Chloro-N-(1-hydroxy-cyclohexylmethyl)-5-(2-methoxy-pyrimidin-4-yloxy)-benzamide]
93 nM | O=C(NCC1(O)CCCCC1)c1cc(Oc2cnccn2)ccc1Cl [Example 121, 2-Chloro-N-(1-hydroxy-cyclohexylmethyl)-5-(pyrazin-2-yloxy)-benzamide]
101 nM | O=C(NCC1(O)CCCCC1)c1cc(Oc2cncc(Cl)n2)ccc1Cl [Example 122, 2-Chloro-5-(6-chloro-pyrazin-2-yloxy)-N-(1-hydroxy-cyclohexylmethyl)-benzamide]
123 nM | COc1cncc(Oc2ccc(Cl)c(C(=O)NCC3(O)CCCCC3)c2)n1 [Example 123, 2-Chloro-N-(1-hydroxy-cyclohexylmethyl)-5-(6-methoxy-pyrazin-2-yloxy)-benzamide]
163 nM | CNc1cncc(Oc2ccc(Cl)c(C(=O)NCC3(O)CCCCC3)c2)n1 [Example 124, 2-Chloro-N-(1-hydroxy-cyclohexylmethyl)-5-(6-methylamino-pyrazin-2-yloxy)-benzamide]
504 nM | CN(C)c1cncc(Oc2ccc(Cl)c(C(=O)NCC3(O)CCCCC3)c2)n1 [Example 125, 2-Chloro-5-(6-dimethylamino-pyrazin-2-yloxy)-N-(1-hydroxy-cyclohexylmethyl)-benzamide]
461 nM | O=C(NCC1(O)CCCCC1)c1cc(Oc2cncc(=O)[nH]2)ccc1Cl [Example 126, 2-Chloro-N-(1-hydroxy-cyclohexylmethyl)-5-(6-oxo-1,6-dihydro-pyrazin-2-yloxy)-benzamide]
58 nM | O=C(NCC1(O)CCCCC1)c1cc(Oc2ccc(Cl)nn2)ccc1Cl [Example 127, 2-Chloro-5-(6-chloro-pyridazin-3-yloxy)-N-(1-hydroxy-cyclohexylmethyl)-benzamide]
30 nM | COc1ccc(Oc2ccc(Cl)c(C(=O)NCC3(O)CCCCC3)c2)nn1 [Example 128, 2-Chloro-N-(1-hydroxy-cyclohexylmethyl)-5-(6-methoxy-pyridazin-3-yloxy)-benzamide]
80 nM | O=C(NCC1(O)CCCCC1)c1cc(Oc2ccc(=O)[nH]n2)ccc1Cl [Example 129, 2-Chloro-N-(1-hydroxy-cyclohexylmethyl)-5-(6-oxo-1,6-dihydro-pyridazin-3-yloxy)-benzamide]
67 nM | O=C(NCC1(O)CCCCC1)c1cc(Oc2cccnn2)ccc1Cl [Example 130, 2-Chloro-N-(1-hydroxy-cyclohexylmethyl)-5-(pyridazin-3-yloxy)-benzamide]
206 nM | COc1cnnc(Oc2ccc(Cl)c(C(=O)NCC3(O)CCCCC3)c2)c1 [Example 131, 2-Chloro-N-(1-hydroxy-cyclohexylmethyl)-5-(5-methoxy-pyridazin-3-yloxy)-benzamide]
46 nM | O=C(NCC1(O)CCCCC1)c1cc(Sc2ccccn2)ccc1Cl [Example 132, 2-Chloro-N-(1-hydroxy-cyclohexylmethyl)-5-(pyridin-2-ylsulfanyl)-benzamide]
105 nM | O=C(NCC1(O)CCCCC1)c1cc(S(=O)(=O)c2ccccn2)ccc1Cl [Example 134, 2-Chloro-N-(1-hydroxy-cyclohexylmethyl)-5-(pyridine-2-sulfonyl)-benzamide]
266 nM | O=C(NCC1(O)CCCCC1)c1cc(Sc2ccnc(Cl)n2)ccc1Cl [Example 135, 2-Chloro-5-(2-chloro-pyrimidin-4-ylsulfanyl)-N-(1-hydroxy-cyclohexylmethyl)-benzamide]
8.1 nM | O=C(NCC1(O)CCCCC1)c1cc(Sc2cc[nH]c(=O)n2)ccc1Cl [Example 137, 2-Chloro-N-(1-hydroxy-cyclohexylmethyl)-5-(2-oxo-1,2-dihydro-pyrimidin-4-ylsulfanyl)-benzamide]
10 nM | O=C(NCC1(O)CCC(F)(F)CC1)c1cc(Sc2cc[nH]c(=O)n2)ccc1Cl [Example 138, 2-Chloro-N-(4,4-difluoro-1-hydroxy-cyclohexylmethyl)-5-(2-oxo-1,2-dihydro-pyrimidin-4-ylsulfanyl)-benzamide]
74 nM | COc1nccc(Sc2ccc(Cl)c(C(=O)NCC3(O)CCCCC3)c2)n1 [Example 139, 2-Chloro-N-(1-hydroxy-cyclohexylmethyl)-5-(2-methoxy-pyrimidin-4-ylsulfanyl)-benzamide]
3890 nM | COc1nccc(S(=O)(=O)c2ccc(Cl)c(C(=O)NCC3(O)CCCCC3)c2)n1 [Example 141, 2-Chloro-N-(1-hydroxy-cyclohexylmethyl)-5-(2-methoxy-pyrimidine-4-sulfonyl)-benzamide]
80 nM | O=C(NCC1(O)CCCCC1)c1cc(Cn2ccccc2=O)ccc1Cl [Example 142, 2-Chloro-N-(1-hydroxy-cyclohexylmethyl)-5-(2-oxo-2H-pyridin-1-ylmethyl)-benzamide]
377 nM | O=C(NCC1(O)CCCCC1)c1cc(Cn2cccnc2=O)ccc1Cl [Example 143, 2-Chloro-N-(1-hydroxy-cyclohexylmethyl)-5-(2-oxo-2H-pyrimidin-1-ylmethyl)-benzamide]
1390 nM | O=C(NCC1(O)CCCCC1)c1cc(Cn2ccc(=O)[nH]c2=O)ccc1Cl [Example 144, 2-Chloro-5-(2,4-dioxo-3,4-dihydro-2H-pyrimidin-1-ylmethyl)-N-(1-hydroxy-cyclohexylmethyl)-benzamide]
21 nM | O=C(NCC1(O)CCCCC1)c1cc(Cc2ccccn2)ccc1Cl [Example 145, 2-Chloro-N-(1-hydroxy-cyclohexylmethyl)-5-pyridin-2-ylmethyl-benzamide]
